# Assay results reported in patent US20260263517A1, “THERAPEUTIC METHODS WITH TARGET-LINKED SMALL MOLECULES AND ANTI-TARGET CAR T CELLS” (Seattle Children's Hospital (dba Seattle Children's …, priority 2022, published 2026).
# Entries after “also recorded” stand apart in the source; their conditions may differ.
# Test system: THP1-FRβ tumor cells
# Assay: intravenous THP1-FRβ AML xenograft, E2 CAR-T cells plus EC17 dosing regimens
# Assay type: in vivo
# Protocol: One objective of this E2-CAR T-cell study was to test EC17/E2 CAR-T cell activity and related toxicity (e.g., sCRS) using multiple dosing regimens starting 3 days after CAR-T infusion. Three different EC17 dosing regimens include (a) once-a-week (SIW) at 500 nmol/kg, (b) “T1W-like” at 5, 50, and 500 nmol/kg on Monday/Wednesday/Friday with 9-day intervals, and (c) “T1W-like” at 5, 100, and 1000 nmol/kg on Monday/Thursday/Monday with 7-day intervals.
# THP-1-FRβ AML tumor cells were grown in folate-deficient RPMI 1640 with 5-10% FBS at 37° C. in a 5% CO2 humidified atmosphere. THP-1-FRO tumor cells in serum-free folate-deficient RPMI1640 medium were i.v. injected at 5×10^6 cells per animal.
# Anti-FITC E2 scFv-CAR T cells were frozen in a T-cell freezing medium. Upon arrival, vials of frozen CAR-T cells were immediately stored at −80° C. The CAR-T cells were quickly thawed at 37° C., washed twice with CAR-T cell culture medium, and used for animal injection at 6 million viable EGFRt+E2 CAR-T cells (CD4/CD8 at ~1:1) per animal. A small aliquot was taken on the day infusion for flow cytometric analysis of E2-CAR T-cell phenotypes.
# EC17 and bis-EDA-FITC dosing solutions were prepared when dosing began by weighing appropriate amounts of each compound, reconstituting in PBS, pH 7.4, sterile filtering the drug solution through a 0.22 pm PVDF syringe filter, and freezing aliquots for each day of dosing at −20° C.
# All EC17 doses were given towards the end of day (3-4 PM) to allow potential CRS (cytokine release syndrome) to develop overnight. In the following morning, animals were scored according to a CRS grading system (see below).
# Daily body weight measurement on the days after EC17 dose is required. Attention was given to gross animal morphology and behavior. Euthanasia was performed if mice lose a lot of weight in a short duration or when mice are approaching moribund conditions per CRS grading system or neurotoxicity.
# Tumor growth, body weight, and overall assessment: Body weight measured 2-3 times/week. On the days immediately after any EC17 dose, body weight measurement was taken daily, and attentions were given to gross animal morphology and behavior.
# Whole blood cell analysis: Plasma was removed from predetermined volumes of whole EDTA treated blood and RBCs were lysed with RBC lysis solution. The leukocyte pellets were then resuspended in flow cytometry staining solution (1% bovine serum albumin, 50 mg/mL human IgG (Equitech Bio, cat #SLH56-0001), 0.9% sodium azide in a phosphate buffered saline, pH=7.4) and leukocyte surface marker staining was performed using the following antibodies: anti-human CD45 (clone HI30, eBioscience #47-0459-42 at 1:20 (v/v) dilution), anti-human CD137 (clone 4B4-1, BD Bioscience #564092 at 1:20 (v/v) dilution), anti-human CD8α [clone RPA-T8, BD Bioscience, catalog #557746 at 1:20 (v/v) dilution], anti-human CD4 [clone SK3, eBioscience catalog #46-0047-42 at 1:20 (v/v) dilution], anti-human EGFR [R&D systems, clone Hu1, catalog #FAB9577B @1:10(n/n)], anti-human PD1 [BD Biosciences, clone EH12.1, catalog #562511 @1:20 (v/v)], anti-human LAG3 [BD Biosciences, clone T47-530, catalog #565616 @1:20 (v/v)], anti-human TIM3 [BD Biosciences, clone 7D3, catalog #565558 @1:20 (v/v)], anti-human CD3ε [BD Biosciences, clone SK7, catalog #557832 @1:20 (v/v)]. After leukocyte staining, cells were washed with PBS and resuspended in cold PBS containing 53,000 CountBright™ beads [Invitrogen catalog #C36950] and transferred to flow cytometry collection tubes. Flow cytometry data was collected on the Gallios flow cytometer (Beckman Coulter, Brea, CA). Determination of the concentration of CAR T cells in each blood sample was calculated according to Invitrogen's instructions. CAR T cells were identified as human CD3ε+EGFRt+ events and easily distinguished and counted using the Kaluza™ flow cytometry software. […]
# [1] = 6 million CAR-T + EC17 SIW 500 nmol/kg (Cohort 3)
compound,measurement,setting,value
"NC1=NC2N=CC(CNc3ccc(C(=O)N[C@@H](CCC(=O)NCCNC(=S)Nc4ccc(-c5c6ccc(=O)cc-6oc6cc(O)ccc56)c(C(=O)O)c4)C(=O)O)cc3)=NC2C(=O)N1 (stereo partly shown) [EC17, FA-(γ)-ethylenediamine-FITC]",body weight loss,6 million CAR-T + EC17 M/Th/M dose escalation (Cohort 5),little body weight loss during the first two cycles; also recorded: very mild body weight loss
same,CRS grade,[1],1-2
same,body weight loss,[1],EC17 dose-dependent body weight loss after each EC17 dose; also recorded: some body weight loss
same,body weight loss,6 million CAR-T + EC17 TIW 5/50/500 nmol/kg on/off (Cohort 4),mildest body weight loss among three treatment groups; also recorded: least body weight loss
same,circulating THP1-FRβ (GFP+) tumor cells in blood,"E2 CAR T cells + EC17, all three dosing regimens, end of study",significant reduction in circulating THP1 cell burden; also recorded: effectively reduced circulating THP11-FRβ tumor cells in the blood
same,non-liver macrometastases,EC17 M/Th/M dose escalation at a slow pace per cycle,failed to control the non-liver macrometastases
same,non-liver macrometastases,EC17 SIW 500 nmol/kg,successfully controlled non-liver macrometastases
same,non-liver macrometastases,EC17 TIW 5/50/500 nmol/kg on/off,successfully controlled non-liver macrometastases
same,liver and non-liver (overall) tumor burden,"EC17 TIW 5/50/500 nmol/kg on/off (Cohort 4), Day 39",best anti-tumor activity among the three different EC17 dose schedules; also recorded: trended to be the best regimen
same,"co-expression of PD1, LAG3, TIM3 on CAR T cells from liver tumors",EC17 TIW (cohort 4),fewest number of double and triple positive events
same,CAR T exhaustion,all three EC17 dosing regimens,very little induction of CAR T exhaustion
same,severe CRS (grades≥3),any EC17 treated cohort,"no severe CRS (i.e., grades≥3) was observed"
same,circulating CAR-T cells in blood,"satellite animals, day 31, all EC17 treated cohorts",EC17-dependent CAR-T cell expansion and persistence in all treated cohorts
